# From ChEMBL document CHEMBL1130422, “A refined model for the somatostatin pharmacophore: conformational analysis of lanthionine-sandostatin analogs” (J Med Chem, 1997)
# Where a SMILES comes first, the peptide text is derived from it. Bridges are numbered along the chain shown (N, C = ends). [ ]: non-standard residue; d: D form. d(aThr) = C[C@@H](O)[C@@H](N)C(=O)O
# Target: T1, Somatostatin receptor type 5 (Rattus norvegicus, UniProt P30938)
# T1 sequence (P30938 whole entry): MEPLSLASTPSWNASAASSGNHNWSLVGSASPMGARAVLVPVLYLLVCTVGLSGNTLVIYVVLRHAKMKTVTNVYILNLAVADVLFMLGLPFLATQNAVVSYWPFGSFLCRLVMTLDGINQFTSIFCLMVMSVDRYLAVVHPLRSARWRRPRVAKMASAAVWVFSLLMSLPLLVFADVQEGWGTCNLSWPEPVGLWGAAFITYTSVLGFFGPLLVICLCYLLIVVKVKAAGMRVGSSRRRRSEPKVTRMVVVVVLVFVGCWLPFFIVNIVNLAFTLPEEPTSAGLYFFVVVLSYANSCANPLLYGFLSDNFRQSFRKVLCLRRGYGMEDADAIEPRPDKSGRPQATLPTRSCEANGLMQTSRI
# Assay: Compound was tested for the inhibition of rSSTR5
row,Compound,IC50 [nM]
1,C[C@@H](O)[C@@H](NC(=O)[C@H]1CSSC[C@H](NC(=O)[C@@H](N)Cc2ccccc2)C(=O)N[C@@H](Cc2ccccc2)C(=O)N[C@H](Cc2c[nH]c3ccccc23)C(=O)N[C@@H](CCCCN)C(=O)N[C@H]([C@@H](C)O)C(=O)N1)C(=O)O,1.04
2,C[C@@H](O)[C@H](NC(=O)[C@@H]1CSC[C@@H](NC(=O)[C@H](N)Cc2ccccc2)C(=O)N[C@H](Cc2ccccc2)C(=O)N[C@@H](Cc2c[nH]c3ccccc23)C(=O)N[C@H](CCCCN)C(=O)N[C@@H]([C@@H](C)O)C(=O)N1)C(N)=O,5.5
3,C[C@@H](O)[C@@H]1NC(=O)[C@@H](CCCCN)NC(=O)[C@H](Cc2c[nH]c3ccccc23)NC(=O)[C@@H](Cc2ccccc2)NC(=O)[C@H](NC(=O)[C@H](N)Cc2ccccc2)CSC[C@@H](C(=O)O)NC1=O,500
4,C[C@@H](O)[C@H]1NC(=O)[C@H](CCCCN)NC(=O)[C@@H](Cc2c[nH]c3ccccc23)NC(=O)[C@H](Cc2ccccc2)NC(=O)[C@@H](NC(=O)[C@@H](N)Cc2ccccc2)CSSC[C@H](C(=O)O)NC1=O (H-FCF[dW]K[d(aThr)][dC]-OH; disulfide 2-7),10.6

# Target: Somatostatin receptor type 2 (Mus musculus, UniProt P30875)
# Sequence (P30875 whole entry): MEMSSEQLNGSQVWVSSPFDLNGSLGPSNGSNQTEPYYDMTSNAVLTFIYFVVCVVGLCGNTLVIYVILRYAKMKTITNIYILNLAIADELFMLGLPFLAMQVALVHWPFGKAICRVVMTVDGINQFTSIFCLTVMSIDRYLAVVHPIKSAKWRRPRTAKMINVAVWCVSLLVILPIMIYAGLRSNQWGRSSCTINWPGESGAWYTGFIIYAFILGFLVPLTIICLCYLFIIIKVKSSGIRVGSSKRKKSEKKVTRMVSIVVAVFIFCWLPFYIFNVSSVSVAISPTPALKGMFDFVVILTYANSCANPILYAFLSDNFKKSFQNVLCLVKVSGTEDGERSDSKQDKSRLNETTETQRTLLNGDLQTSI
# Assay: Compound was tested for the inhibition of mSSTR2b
row,Compound,IC50 [nM]
1,C[C@@H](O)[C@H](NC(=O)[C@@H]1CSSC[C@H](NC(=O)[C@H](N)Cc2ccccc2)C(=O)N[C@@H](Cc2ccccc2)C(=O)N[C@H](Cc2c[nH]c3ccccc23)C(=O)N[C@@H](CCCCN)C(=O)N[C@@H]([C@@H](C)O)C(=O)N1)C(=O)O,0.28
2,C[C@@H](O)[C@H](NC(=O)[C@@H]1CSC[C@H](NC(=O)[C@H](N)Cc2ccccc2)C(=O)N[C@@H](Cc2ccccc2)C(=O)N[C@H](Cc2c[nH]c3ccccc23)C(=O)N[C@@H](CCCCN)C(=O)N[C@@H]([C@@H](C)O)C(=O)N1)C(N)=O,15.6
